Measurements: the NIST ThermoML archive (doi:10.1016/j.jct.2014.06.023)
Several values for one entry are separate records, joined by “and”; a condition that tells them apart may be missing. Identical values can stand only once. Numbers after ± are expanded uncertainties.

Conditions: Buoyancy - hydrostatic balance with magnetic suspension - one sinker

FCF [difluoromethane]
Conditions	mass density
215.35 K, 1103.8 kPa, Liquid	1230.26 ± 0.28 kg/m3
215.35 K, 1325.8 kPa, Liquid	1230.63 ± 0.28 kg/m3
215.36 K, 1538.7 kPa, Liquid	1230.95 ± 0.28 kg/m3
215.36 K, 1697.9 kPa, Liquid	1231.2 ± 0.28 kg/m3
215.37 K, 103.26 kPa, Liquid	1228.62 ± 0.28 kg/m3
215.37 K, 297.95 kPa, Liquid	1228.9 ± 0.28 kg/m3
215.37 K, 703.99 kPa, Liquid	1229.57 ± 0.28 kg/m3
215.39 K, 1295 kPa, Liquid	1230.49 ± 0.28 kg/m3
224.87 K, 174.37 kPa, Liquid	1202.55 ± 0.27 kg/m3
224.87 K, 584.91 kPa, Liquid	1203.31 ± 0.27 kg/m3
224.88 K, 1061.9 kPa, Liquid	1204.12 ± 0.28 kg/m3
224.89 K, 1060.1 kPa, Liquid	1204.1 ± 0.28 kg/m3
224.91 K, 1506.3 kPa, Liquid	1204.87 ± 0.28 kg/m3
234.46 K, 1590 kPa, Liquid	1178.28 ± 0.27 kg/m3
234.51 K, 797.4 kPa, Liquid	1176.49 ± 0.27 kg/m3
234.52 K, 405.74 kPa, Liquid	1175.67 ± 0.27 kg/m3
234.55 K, 274.67 kPa, Liquid	1175.3 ± 0.27 kg/m3
234.56 K, 1164.8 kPa, Liquid	1177.09 ± 0.27 kg/m3
235.12 K, 296.35 kPa, Liquid	1173.64 ± 0.27 kg/m3
235.12 K, 647.72 kPa, Liquid	1174.42 ± 0.27 kg/m3
235.12 K, 648.42 kPa, Liquid	1174.42 ± 0.27 kg/m3
235.12 K, 1119.6 kPa, Liquid	1175.37 ± 0.27 kg/m3
235.12 K, 1629.1 kPa, Liquid	1176.43 ± 0.27 kg/m3
235.13 K, 296.36 kPa, Liquid	1173.65 ± 0.27 kg/m3
235.13 K, 1583.2 kPa, Liquid	1176.31 ± 0.27 kg/m3
235.14 K, 1742.1 kPa, Liquid	1176.61 ± 0.27 kg/m3
244.28 K, 721.81 kPa, Liquid	1147.83 ± 0.26 kg/m3
244.28 K, 1218.8 kPa, Liquid	1148.97 ± 0.26 kg/m3
244.29 K, 432.84 kPa, Liquid	1147.12 ± 0.26 kg/m3
244.29 K, 1506.2 kPa, Liquid	1149.63 ± 0.26 kg/m3
244.3 K, 1507.8 kPa, Liquid	1149.6 ± 0.26 kg/m3
244.89 K, 745.03 kPa, Liquid	1145.98 ± 0.26 kg/m3
244.89 K, 1636.6 kPa, Liquid	1148.09 ± 0.26 kg/m3
244.9 K, 364.35 kPa, Liquid	1145.04 ± 0.26 kg/m3
244.9 K, 1266.5 kPa, Liquid	1147.19 ± 0.26 kg/m3
244.9 K, 1785 kPa, Liquid	1148.39 ± 0.26 kg/m3
244.91 K, 1786.1 kPa, Liquid	1148.39 ± 0.26 kg/m3
254.08 K, 382.25 kPa, Gas	10.3656 ± 0.018 kg/m3
254.09 K, 214.16 kPa, Gas	5.5491 ± 0.017 kg/m3
254.09 K, 313.9 kPa, Gas	8.3508 ± 0.018 kg/m3
254.1 K, 104.12 kPa, Gas	2.6275 ± 0.016 kg/m3
254.65 K, 795.59 kPa, Liquid	1116.29 ± 0.26 kg/m3
254.65 K, 1111.6 kPa, Liquid	1117.17 ± 0.26 kg/m3
254.65 K, 1794.7 kPa, Liquid	1119.02 ± 0.26 kg/m3
254.66 K, 487.53 kPa, Liquid	1115.4 ± 0.26 kg/m3
254.66 K, 1451 kPa, Liquid	1118.05 ± 0.26 kg/m3
254.66 K, 1795.2 kPa, Liquid	1119 ± 0.26 kg/m3
254.67 K, 1113.8 kPa, Liquid	1117.12 ± 0.26 kg/m3
254.67 K, 1449.1 kPa, Liquid	1118.02 ± 0.26 kg/m3
263.88 K, 107.72 kPa, Gas	2.6075 ± 0.015 kg/m3
263.88 K, 204.78 kPa, Gas	5.0609 ± 0.016 kg/m3
263.88 K, 306.27 kPa, Gas	7.74 ± 0.017 kg/m3
263.88 K, 401.96 kPa, Gas	10.3885 ± 0.018 kg/m3
263.88 K, 506.07 kPa, Gas	13.4247 ± 0.018 kg/m3
263.88 K, 571.82 kPa, Gas	15.4369 ± 0.019 kg/m3
263.89 K, 71.43 kPa, Gas	1.7159 ± 0.015 kg/m3
264.46 K, 1262.6 kPa, Liquid	1086.13 ± 0.25 kg/m3
264.46 K, 1771.5 kPa, Liquid	1087.75 ± 0.25 kg/m3
264.47 K, 883.24 kPa, Liquid	1084.88 ± 0.25 kg/m3
264.47 K, 1555.9 kPa, Liquid	1087.04 ± 0.25 kg/m3
264.47 K, 1797.3 kPa, Liquid	1087.79 ± 0.41 kg/m3
264.47 K, 1799.4 kPa, Liquid	1087.82 ± 0.41 kg/m3
264.48 K, 882.25 kPa, Liquid	1084.85 ± 0.25 kg/m3
264.48 K, 1561.7 kPa, Liquid	1087.04 ± 0.25 kg/m3
264.49 K, 616.31 kPa, Liquid	1083.92 ± 0.25 kg/m3
273.73 K, 101.73 kPa, Gas	2.3681 ± 0.015 kg/m3
273.73 K, 312.85 kPa, Gas	7.5636 ± 0.016 kg/m3
273.73 K, 513.88 kPa, Gas	12.9426 ± 0.017 kg/m3
273.73 K, 711.85 kPa, Gas	18.7582 ± 0.019 kg/m3
273.73 K, 817.04 kPa, Gas	22.1108 ± 0.021 kg/m3
273.74 K, 224.38 kPa, Gas	5.3352 ± 0.015 kg/m3
273.74 K, 416.77 kPa, Gas	10.2856 ± 0.017 kg/m3
273.74 K, 614.63 kPa, Gas	15.8288 ± 0.018 kg/m3
273.74 K, 771.81 kPa, Gas	20.6433 ± 0.02 kg/m3
273.74 K, 824.1 kPa, Gas	22.3391 ± 0.021 kg/m3
273.74 K, 876.3 kPa, Liquid	1053.21 ± 0.24 kg/m3
273.74 K, 1101.1 kPa, Liquid	1054.06 ± 0.24 kg/m3
273.75 K, 1351.5 kPa, Liquid	1054.99 ± 0.24 kg/m3
273.76 K, 1582.2 kPa, Liquid	1055.81 ± 0.24 kg/m3
283.52 K, 412.99 kPa, Gas	9.7269 ± 0.016 kg/m3
283.52 K, 614.51 kPa, Gas	15.0118 ± 0.017 kg/m3
283.52 K, 710.61 kPa, Gas	17.6856 ± 0.018 kg/m3
283.53 K, 101.75 kPa, Gas	2.2806 ± 0.014 kg/m3
283.53 K, 213.32 kPa, Gas	4.8632 ± 0.015 kg/m3
283.53 K, 312.42 kPa, Gas	7.2368 ± 0.015 kg/m3
283.53 K, 812.63 kPa, Gas	20.6499 ± 0.019 kg/m3
283.54 K, 502.33 kPa, Gas	12.0197 ± 0.016 kg/m3
283.54 K, 1013.2 kPa, Gas	26.9253 ± 0.021 kg/m3 and 26.9235 ± 0.021 kg/m3
283.55 K, 911.64 kPa, Gas	23.6652 ± 0.02 kg/m3
283.55 K, 1562.5 kPa, Liquid	1020.09 ± 0.24 kg/m3
283.56 K, 1156 kPa, Liquid	1018.14 ± 0.23 kg/m3
283.56 K, 1382.8 kPa, Liquid	1019.19 ± 0.23 kg/m3
293.32 K, 107.46 kPa, Gas	2.3235 ± 0.014 kg/m3
293.32 K, 432.29 kPa, Gas	9.7863 ± 0.015 kg/m3
293.32 K, 546.17 kPa, Gas	12.5808 ± 0.016 kg/m3
293.32 K, 656.65 kPa, Gas	15.3945 ± 0.016 kg/m3
293.33 K, 1265.1 kPa, Gas	33.2531 ± 0.022 kg/m3
293.33 K, 1397.3 kPa, Gas	37.8678 ± 0.023 kg/m3
293.33 K, 2143.9 kPa, Liquid	984.45 ± 0.23 kg/m3
293.34 K, 760.28 kPa, Gas	18.1362 ± 0.017 kg/m3
293.34 K, 866.25 kPa, Gas	21.0499 ± 0.018 kg/m3
293.34 K, 968.81 kPa, Gas	23.9856 ± 0.019 kg/m3
293.34 K, 1066.3 kPa, Gas	26.9025 ± 0.02 kg/m3
293.34 K, 1161.5 kPa, Gas	29.864 ± 0.021 kg/m3
293.34 K, 1757.2 kPa, Liquid	982.24 ± 0.23 kg/m3
293.35 K, 1537.9 kPa, Liquid	980.97 ± 0.23 kg/m3
293.37 K, 323.39 kPa, Gas	7.2059 ± 0.015 kg/m3
293.38 K, 219.26 kPa, Gas	4.8156 ± 0.014 kg/m3
